#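 How tested: cells in 96-well plates exposed to compound for 48 hours at five concentrations. The concentration for 50% growth inhibition is given as GI50. TGI is the concentration that stops growth completely.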
# Tests used:
# Test in all cases: NCI tumour cell line growth inhibition, 48 h
# SK-MEL-5 melanoma = tested on: SK-MEL-5 melanoma
# UO-31 renal = tested on: UO-31 renal
# DU-145 prostate = tested on: DU-145 prostate
# SF-268 CNS = tested on: SF-268 CNS
# MCF7 breast = tested on: MCF7 breast
# CCRF-CEM leukemia = tested on: CCRF-CEM leukemia
# BT-549 breast = tested on: BT-549 breast
# MDA-MB-435 = tested on: MDA-MB-435
# IGROV1 ovarian = tested on: IGROV1 ovarian
# SN12C renal = tested on: SN12C renal
# HCT-116 colon = tested on: HCT-116 colon
# HCT-15 colon = tested on: HCT-15 colon
# SK-MEL-2 melanoma = tested on: SK-MEL-2 melanoma
# K-562 leukemia = tested on: K-562 leukemia
# M14 melanoma = tested on: M14 melanoma
# HCC-2998 colon = tested on: HCC-2998 colon
# OVCAR-4 ovarian = tested on: OVCAR-4 ovarian
# MDA-MB-231 breast = tested on: MDA-MB-231 breast
# ACHN renal = tested on: ACHN renal
# A549 NSCLC = tested on: A549 NSCLC
# SNB-75 CNS = tested on: SNB-75 CNS
# MOLT-4 leukemia = tested on: MOLT-4 leukemia
# SR leukemia = tested on: SR leukemia
# UACC-257 melanoma = tested on: UACC-257 melanoma
# SNB-19 CNS = tested on: SNB-19 CNS
# SK-MEL-28 melanoma = tested on: SK-MEL-28 melanoma
# KM12 colon = tested on: KM12 colon
# CAKI-1 renal = tested on: CAKI-1 renal
# OVCAR-3 ovarian = tested on: OVCAR-3 ovarian
# HL-60(TB) leukemia = tested on: HL-60(TB) leukemia
# NCI-H23 lung = tested on: NCI-H23 lung
# SW-620 colon = tested on: SW-620 colon
# A498 renal = tested on: A498 renal
# COLO 205 colon = tested on: COLO 205 colon
# T-47D breast = tested on: T-47D breast
# TK-10 renal = tested on: TK-10 renal
# HOP-62 NSCLC = tested on: HOP-62 NSCLC
# NCI-H460 lung = tested on: NCI-H460 lung
# OVCAR-5 ovarian = tested on: OVCAR-5 ovarian
# RXF 393 renal = tested on: RXF 393 renal
# LOX IMVI melanoma = tested on: LOX IMVI melanoma
# SK-OV-3 ovarian = tested on: SK-OV-3 ovarian
# EKVX NSCLC = tested on: EKVX NSCLC
# NCI/ADR-RES ovarian = tested on: NCI/ADR-RES ovarian
# 786-0 renal = tested on: 786-0 renal
# NCI-H226 lung = tested on: NCI-H226 lung
# SF-539 CNS = tested on: SF-539 CNS
# HOP-92 NSCLC = tested on: HOP-92 NSCLC
# UACC-62 melanoma = tested on: UACC-62 melanoma
# PC-3 prostate = tested on: PC-3 prostate
# SF-295 CNS = tested on: SF-295 CNS
# OVCAR-8 ovarian = tested on: OVCAR-8 ovarian
# HS 578T breast = tested on: HS 578T breast
# MALME-3M melanoma = tested on: MALME-3M melanoma
# RPMI-8226 leukemia = tested on: RPMI-8226 leukemia
# U251 CNS = tested on: U251 CNS
# HT29 colon = tested on: HT29 colon
# NCI-H522 lung = tested on: NCI-H522 lung
compound,measurement,setting,value
CN(C)CCOc1ccc2c(c1)C(=O)/C(=C\c1ncc([N+](=O)[O-])n1C)C2,GI50,SK-MEL-5 melanoma,179 nM
same,TGI,SK-MEL-5 melanoma,402 nM
same,GI50,UO-31 renal,900 nM
same,TGI,UO-31 renal,3680 nM
same,GI50,DU-145 prostate,234 nM
same,TGI,DU-145 prostate,661 nM
same,GI50,SF-268 CNS,489 nM
same,TGI,SF-268 CNS,3110 nM
same,GI50,MCF7 breast,216 nM
same,TGI,MCF7 breast,2500 nM
same,GI50,CCRF-CEM leukemia,1390 nM
same,TGI,CCRF-CEM leukemia,> 100000 nM
same,GI50,BT-549 breast,146 nM
same,TGI,BT-549 breast,529 nM
same,GI50,MDA-MB-435,209 nM
same,TGI,MDA-MB-435,643 nM
same,GI50,IGROV1 ovarian,147 nM
same,TGI,IGROV1 ovarian,378 nM
same,GI50,SN12C renal,1120 nM
same,TGI,SN12C renal,5210 nM
same,GI50,HCT-116 colon,316 nM
same,TGI,HCT-116 colon,1280 nM
same,GI50,HCT-15 colon,311 nM
same,TGI,HCT-15 colon,7390 nM
same,GI50,SK-MEL-2 melanoma,631 nM
same,TGI,SK-MEL-2 melanoma,1930 nM
same,GI50,K-562 leukemia,295 nM
same,GI50,M14 melanoma,543 nM
same,TGI,M14 melanoma,1830 nM
same,GI50,HCC-2998 colon,507 nM
same,TGI,HCC-2998 colon,1750 nM
same,GI50,OVCAR-4 ovarian,529 nM
same,TGI,OVCAR-4 ovarian,3530 nM
same,GI50,MDA-MB-231 breast,418 nM
same,TGI,MDA-MB-231 breast,2330 nM
same,GI50,ACHN renal,298 nM
same,TGI,ACHN renal,2370 nM
same,GI50,A549 NSCLC,370 nM
same,TGI,A549 NSCLC,5140 nM
same,GI50,SNB-75 CNS,474 nM
same,TGI,SNB-75 CNS,1980 nM
same,GI50,MOLT-4 leukemia,358 nM
same,TGI,MOLT-4 leukemia,1650 nM
same,GI50,SR leukemia,416 nM
same,TGI,SR leukemia,960 nM
same,GI50,UACC-257 melanoma,917 nM
same,TGI,UACC-257 melanoma,3190 nM
same,GI50,SNB-19 CNS,1150 nM
same,TGI,SNB-19 CNS,3180 nM
same,GI50,SK-MEL-28 melanoma,922 nM
same,TGI,SK-MEL-28 melanoma,2790 nM
same,GI50,KM12 colon,1190 nM
same,TGI,KM12 colon,3210 nM
same,GI50,CAKI-1 renal,386 nM
same,TGI,CAKI-1 renal,2400 nM
same,GI50,OVCAR-3 ovarian,359 nM
same,TGI,OVCAR-3 ovarian,1260 nM
same,GI50,HL-60(TB) leukemia,235 nM
same,TGI,HL-60(TB) leukemia,1090 nM
same,GI50,NCI-H23 lung,258 nM
same,TGI,NCI-H23 lung,1300 nM
same,GI50,SW-620 colon,474 nM
same,TGI,SW-620 colon,4220 nM
same,GI50,A498 renal,307 nM
same,TGI,A498 renal,931 nM
same,GI50,COLO 205 colon,250 nM
same,TGI,COLO 205 colon,628 nM
same,GI50,T-47D breast,1760 nM
same,TGI,T-47D breast,11400 nM
same,GI50,TK-10 renal,1570 nM
same,TGI,TK-10 renal,4800 nM
same,GI50,HOP-62 NSCLC,1590 nM
same,TGI,HOP-62 NSCLC,4340 nM
same,GI50,NCI-H460 lung,217 nM
same,TGI,NCI-H460 lung,808 nM
same,GI50,OVCAR-5 ovarian,2020 nM
same,TGI,OVCAR-5 ovarian,5700 nM
same,GI50,RXF 393 renal,316 nM
same,TGI,RXF 393 renal,1250 nM
same,GI50,LOX IMVI melanoma,331 nM
same,TGI,LOX IMVI melanoma,1850 nM
same,GI50,SK-OV-3 ovarian,923 nM
same,TGI,SK-OV-3 ovarian,3210 nM
same,GI50,EKVX NSCLC,711 nM
same,TGI,EKVX NSCLC,3830 nM
same,GI50,NCI/ADR-RES ovarian,1430 nM
same,TGI,NCI/ADR-RES ovarian,4550 nM
same,GI50,786-0 renal,857 nM
same,TGI,786-0 renal,3390 nM
same,GI50,NCI-H226 lung,1310 nM
same,TGI,NCI-H226 lung,3700 nM
same,GI50,SF-539 CNS,1400 nM
same,TGI,SF-539 CNS,3350 nM
same,GI50,HOP-92 NSCLC,701 nM
same,TGI,HOP-92 NSCLC,3250 nM
same,GI50,UACC-62 melanoma,851 nM
same,TGI,UACC-62 melanoma,2490 nM
same,GI50,PC-3 prostate,965 nM
same,TGI,PC-3 prostate,4820 nM
same,GI50,SF-295 CNS,460 nM
same,TGI,SF-295 CNS,1470 nM
same,GI50,OVCAR-8 ovarian,950 nM
same,TGI,OVCAR-8 ovarian,> 20500 nM
same,GI50,HS 578T breast,1870 nM
same,TGI,HS 578T breast,5370 nM
same,GI50,MALME-3M melanoma,371 nM
same,TGI,MALME-3M melanoma,1690 nM
same,GI50,RPMI-8226 leukemia,2140 nM
same,TGI,RPMI-8226 leukemia,14400 nM
same,GI50,U251 CNS,1120 nM
same,TGI,U251 CNS,4750 nM
same,GI50,HT29 colon,346 nM
same,TGI,HT29 colon,2250 nM
same,GI50,NCI-H522 lung,191 nM
same,TGI,NCI-H522 lung,492 nM

# — PubChem BioAssay (NCI)
